# Test: pH of [68Ga]PSMA-11 solution (acceptance 4.0-5.0)
# Format: physicochemical
# Settings: for pH of the gallium-68 labelled PSMA-11 solution: immediately after the radiolabelling procedure
# Description: (§1) 100 μl of the ascorbic acid solution (equivalent to 25 mg ascorbic acid) was taken from vial 3, and was filtered through a 5 μm filter needle. The sodium ascorbate solution was subsequently added to vail 2, and mixed thoroughly. The obtained content of vial 2 was added to vial 1, and again mixed thoroughly. To this obtained vail 1, the eluate, comprising the gallium-68, was added to obtain a gallium-68 labelled PSMA-11 solution. Optionally, a 2.5 ml 0.9% sodium chloride solution may be added to increase the volume and/or to amend the osmolality to be under 1000 mOsm/kg.
# The pH of the gallium-68 labelled PSMA-11 solution was 4.5 immediately after the radiolabelling procedure and was unchanged after 4 hours.
# as §1, with “a Gallium-68” for “a gallium-68”, “a” for “a 2.5 ml 0.9%”, “volume of the obtained Gallium-68 labelled PSMA-11 solution” for “volume”, “mOsm/kg. The pH of the gallium-68 labelled PSMA-11 solution was 4.5 immediately after the radiolabelling procedure and was unchanged after 4 hours.” for “mOsm/kg.”
# as §1, with “a Gallium-68” for “a gallium-68”, “a” for “a 2.5 ml 0.9%”, “volume of the obtained Gallium-68 labelled PSMA-11 solution” for “volume”, “mOsm/kg. The pH of the gallium-68 labelled PSMA-11 solution was 4.5 immediately after the radiolabelling procedure and was unchanged after 6 hours.” for “mOsm/kg.”
# Table 1 to Table 5 show the results of various radiolabelling experiments on radiochemical purity and the chelation yield. The radiolabelling experiments in the tables are carried out as described in: • Example 1 for when the gallium-68 source is GE Liquid target generator and EZAG GalliaPharm generator; • Example 2 for when the gallium-68 source is IRE Galli Eo generator; • Example 3 for when the gallium-68 source is GE solid target generator;
# However, the experiments were carried out with the amount of ascorbic acid as indicated in the Tables 1 to 5, and the activity as indicated in the Tables 1 to 5. Radiochemical purities were measured at various times (T0, T1, T4, T6) after the radiolabelled experiments have been conducted.
# The kits of Example 1, Example 2 or Example 3, with amounts of ascorbic acid as set out in Table 7 were used in the experiments for the ascorbic acid bracketing matrix. Three strengths of [^68Ga]Ga-PSMA-11 will be tested, i.e. 50 mCi/ml, 7 mCi/ml and 1 mCi/ml. Radiochemical purity was determined at different time points (TO, T1, T4 or T6), as set out in Table 7.
smiles,measurement,setting,value
"O=C([O-])CN(CCN(CC(=O)[O-])Cc1cc(CCC(=O)NCCCCCC(=O)NCCCC[C@H](NC(=O)N[C@@H](CCC(=O)O)C(=O)O)C(=O)O)ccc1[O-])Cc1cc(CCC(=O)O)ccc1[O-].[68Ga+3].[OH3+] [[^68Ga]PSMA-11, gallium-68 radiolabelled Glu-urea-Lys-HBED-CC (gozetotide or PSMA-11)]",pH,"1 mg ascorbic acid, 58.7-71.1 mCi, 7.47-8.99 mCi/mL, GE Liquid target, n=3, T0",C (C = conforms to specifications)
same,pH,"1 mg ascorbic acid, 58.7-71.1 mCi, 7.47-8.99 mCi/mL, GE Liquid target, n=3, T4 (4 h)",C (C = conforms to specifications)
same,pH,"2.5 mg ascorbic acid, 49.9-76.9 mCi, 6.31-9.72 mCi/mL, GE Liquid target, n=3, T0",C (C = conforms to specifications)
same,pH,"2.5 mg ascorbic acid, 49.9-76.9 mCi, 6.31-9.72 mCi/mL, GE Liquid target, n=3, T4 (4 h)",C (C = conforms to specifications)
same,pH,"5 mg ascorbic acid, 60-69.9 mCi, 7.61-8.81 mCi/mL, 3 × GE Liquid Target, 3 × EZAG GalliaPharm, n=6, T0",C (C = conforms to specifications)
same,pH,"5 mg ascorbic acid, 60-69.9 mCi, 7.61-8.81 mCi/mL, 3 × GE Liquid Target, 3 × EZAG GalliaPharm, n=6, T4 (4 h)",C (C = conforms to specifications)
same,pH,"10 mg ascorbic acid, 458-500 mCi, 43.4-47.3 mCi/mL, GE Solid Target, n=3, T0",C (C = conforms to specifications)
same,pH,"10 mg ascorbic acid, 458-500 mCi, 43.4-47.3 mCi/mL, GE Solid Target, n=3, T4 (4 h)",C (C = conforms to specifications)
same,pH,"10 mg ascorbic acid, 514-520 mCi, 49.0-66.1 mCi/mL, GE Solid Target, n=3, T0",C (C = conforms to specifications)
same,pH,"10 mg ascorbic acid, 514-520 mCi, 49.0-66.1 mCi/mL, GE Solid Target, n=3, T6 (6 h)",C (C = conforms to specifications)
same,pH,"15 mg ascorbic acid, 10.0-18.4 mCi, 0.95-1.77 mCi/mL, 1 × EZAG GalliaPharm, 2 × IRE Galli Eo, n=3, T0",C (C = conforms to specifications)
same,pH,"15 mg ascorbic acid, 10.0-18.4 mCi, 0.95-1.77 mCi/mL, 1 × EZAG GalliaPharm, 2 × IRE Galli Eo, n=3, T1 (1 h)",C (C = conforms to specifications)
same,pH,"15 mg ascorbic acid, 23.7-47.6 mCi, 2.26-4.53 mCi/mL, 1 × EZAG GalliaPharm, 2 × IRE Galli Eo, n=3, T0",C (C = conforms to specifications)
same,pH,"15 mg ascorbic acid, 23.7-47.6 mCi, 2.26-4.53 mCi/mL, 1 × EZAG GalliaPharm, 2 × IRE Galli Eo, n=3, T4 (4 h)",C (C = conforms to specifications)
same,pH,"20 mg ascorbic acid, 514-544 mCi, 48.3-51.9 mCi/mL, GE Solid Target, n=2, T0",C (C = conforms to specifications)
same,pH,"20 mg ascorbic acid, 514-544 mCi, 48.3-51.9 mCi/mL, GE Solid Target, n=2, T6 (6 h)",C (C = conforms to specifications)
same,pH,"25 mg ascorbic acid, 10.2 mCi, 0.97 mCi/mL, IRE Galli Eo, n=1, T0",C (C = all results conform to specifications)
same,pH,"25 mg ascorbic acid, 10.2 mCi, 0.97 mCi/mL, IRE Galli Eo, n=1, T1 (1 h)",C (C = all results conform to specifications)
same,pH,"25 mg ascorbic acid, 19.5-20.0 mCi, 1.85-1.90 mCi/mL, EZAG GalliaPharm, n=2, T0",C (C = all results conform to specifications)
same,pH,"25 mg ascorbic acid, 19.5-20.0 mCi, 1.85-1.90 mCi/mL, EZAG GalliaPharm, n=2, T1 (1 h)",C (C = all results conform to specifications)
same,pH,"25 mg ascorbic acid, 23.3-24 mCi, 2.22-2.28 mCi/mL, IRE Galli Eo, n=2, T0",C (C = all results conform to specifications)
same,pH,"25 mg ascorbic acid, 23.3-24 mCi, 2.22-2.28 mCi/mL, IRE Galli Eo, n=2, T4 (4 h)",C (C = all results conform to specifications)
same,pH,"25 mg ascorbic acid, 46.0-46.1 mCi, 4.38-4.39 mCi/mL, EZAG GalliaPharm, n=2, T0",C (C = all results conform to specifications)
same,pH,"25 mg ascorbic acid, 46.0-46.1 mCi, 4.38-4.39 mCi/mL, EZAG GalliaPharm, n=2, T4 (4 h)",C (C = all results conform to specifications)
same,pH,"50 mg ascorbic acid, 560 mCi, 71.1 mCi/mL, GE Solid Target, n=1, T0",C (C = conforms to specifications)
same,pH,"50 mg ascorbic acid, 560 mCi, 71.1 mCi/mL, GE Solid Target, n=1, T6 (6 h)",C (C = conforms to specifications)
same,pH of the gallium-68 labelled PSMA-11 solution,"Example 1 kit (25 mg ascorbic acid; EZAG GalliaPharm or GE Liquid, 60-70 mCi)",4.5
same,"pH of the gallium-68 labelled PSMA-11 solution, change","Example 1 kit, after 4 hours",unchanged
same,pH of the gallium-68 labelled PSMA-11 solution,"Example 2 kit (25 mg ascorbic acid; IRE Galli Eo, 60-70 mCi)",4.5
same,"pH of the gallium-68 labelled PSMA-11 solution, change","Example 2 kit, after 4 hours",unchanged
same,pH of the gallium-68 labelled PSMA-11 solution,"Example 3 kit (25 mg ascorbic acid; solid target, 350-600 mCi)",4.5
same,"pH of the gallium-68 labelled PSMA-11 solution, change","Example 3 kit, after 6 hours",unchanged
same,pH,"bracketing ~1 mCi/mL, 18.75 mg ascorbic acid, 8.9-11.5 mCi, 0.85-1.09 mCi/mL, IRE Galli Eo, n=2, T0",C (C = Conforms to specifications)
same,pH,"bracketing ~1 mCi/mL, 18.75 mg ascorbic acid, 8.9-11.5 mCi, 0.85-1.09 mCi/mL, IRE Galli Eo, n=2, T1 (1 h)",C (C = Conforms to specifications)
same,pH,"bracketing ~1 mCi/mL, 25 mg ascorbic acid, 8.8-12.7 mCi, 0.84-1.21 mCi/mL, 2 × IRE Galli Eo, n=2, T0",C (C = Conforms to specifications)
same,pH,"bracketing ~1 mCi/mL, 25 mg ascorbic acid, 8.8-12.7 mCi, 0.84-1.21 mCi/mL, 2 × IRE Galli Eo, n=2, T1 (1 h)",C (C = Conforms to specifications)
same,pH,"bracketing ~1 mCi/mL, 31.25 mg ascorbic acid, 15.2-26.9 mCi, 1.44-2.54 mCi/mL, EZAG GalliaPharm, n=2, T0",C (C = Conforms to specifications)
same,pH,"bracketing ~1 mCi/mL, 31.25 mg ascorbic acid, 15.2-26.9 mCi, 1.44-2.54 mCi/mL, EZAG GalliaPharm, n=2, T1 (1 h)",C (C = Conforms to specifications)
same,pH,"bracketing ~7 mCi/mL, 18.75 mg ascorbic acid, 51.0-58.0 mCi, 5.55-6.5 mCi/mL, IRE Galli Eo, n=2, T0",C (C = Conforms to specifications)
same,pH,"bracketing ~7 mCi/mL, 18.75 mg ascorbic acid, 51.0-58.0 mCi, 5.55-6.5 mCi/mL, IRE Galli Eo, n=2, T4 (4 h)",C (C = Conforms to specifications)
same,pH,"bracketing ~7 mCi/mL, 25 mg ascorbic acid, 51.6-74.4 mCi, 4.56-6.92 mCi/mL, 3 × GE Liquid Target, 3 × IRE Galli Eo, 3 × EZAG GalliaPharm, n=9, T0",C (C = Conforms to specifications)
same,pH,"bracketing ~7 mCi/mL, 25 mg ascorbic acid, 51.6-74.4 mCi, 4.56-6.92 mCi/mL, 3 × GE Liquid Target, 3 × IRE Galli Eo, 3 × EZAG GalliaPharm, n=9, T4 (4 h)",C (C = Conforms to specifications)
same,pH,"bracketing ~7 mCi/mL, 31.25 mg ascorbic acid, 61.5-62.0 mCi, 5.85-5.88 mCi/mL, EZAG GalliaPharm, n=2, T0",C (C = Conforms to specifications)
same,pH,"bracketing ~7 mCi/mL, 31.25 mg ascorbic acid, 61.5-62.0 mCi, 5.85-5.88 mCi/mL, EZAG GalliaPharm, n=2, T4 (4 h)",C (C = Conforms to specifications)
same,pH,"bracketing ~50 mCi/mL, 20 mg ascorbic acid, 514-544 mCi, 48.3-51.9 mCi/mL, GE Solid Target, n=2, T0",C (C = Conforms to specifications)
same,pH,"bracketing ~50 mCi/mL, 20 mg ascorbic acid, 514-544 mCi, 48.3-51.9 mCi/mL, GE Solid Target, n=2, T6 (6 h)",C (C = Conforms to specifications)
same,pH,"bracketing ~50 mCi/mL, 25 mg ascorbic acid, 537-551 mCi, 50.2-51.6 mCi/mL, GE Solid Target, n=3, T0",C (C = Conforms to specifications)
same,pH,"bracketing ~50 mCi/mL, 25 mg ascorbic acid, 537-551 mCi, 50.2-51.6 mCi/mL, GE Solid Target, n=3, T6 (6 h)",C (C = Conforms to specifications)
same,pH,"bracketing ~50 mCi/mL, 31.25 mg ascorbic acid, 500-544 mCi, 48.1-51.7 mCi/mL, GE Solid Target, n=2, T0",C (C = Conforms to specifications)
same,pH,"bracketing ~50 mCi/mL, 31.25 mg ascorbic acid, 500-544 mCi, 48.1-51.7 mCi/mL, GE Solid Target, n=2, T6 (6 h)",C (C = Conforms to specifications)
same,pH,"control, 0 mg ascorbic acid, 70 mCi, GE Solid Target, n=1, T0",C (C = all results conform to specifications)
same,pH,"control, 0 mg ascorbic acid, 70 mCi, GE Solid Target, n=1, T4 (4 h)",C (C = all results conform to specifications)
same,pH,"validation batches, 25 mg ascorbic acid, 51.6-62.7 mCi, 4.56-5.88 mCi/mL, IRE Galli Eo, n=3, T0",C (C = all results conform to specifications)
same,pH,"validation batches, 25 mg ascorbic acid, 51.6-62.7 mCi, 4.56-5.88 mCi/mL, IRE Galli Eo, n=3, T4 (4 h)",C (C = all results conform to specifications)
same,pH,"validation batches, 25 mg ascorbic acid, 53.3-74.4 mCi, 5.03-6.92 mCi/mL, GE Liquid target, n=3, T0",C (C = all results conform to specifications)
same,pH,"validation batches, 25 mg ascorbic acid, 53.3-74.4 mCi, 5.03-6.92 mCi/mL, GE Liquid target, n=3, T4 (4 h)",C (C = all results conform to specifications)
same,pH,"validation batches, 25 mg ascorbic acid, 65.0-66.4 mCi, 5.74-6.15 mCi/mL, EZAG GalliaPharm, n=3, T0",C (C = all results conform to specifications)
same,pH,"validation batches, 25 mg ascorbic acid, 65.0-66.4 mCi, 5.74-6.15 mCi/mL, EZAG GalliaPharm, n=3, T4 (4 h)",C (C = all results conform to specifications)
same,pH,"validation batches, 25 mg ascorbic acid, 537-551 mCi, 50.2-51.6 mCi/mL, GE Solid Target, n=3, T0",C (C = all results conform to specifications)
same,pH,"validation batches, 25 mg ascorbic acid, 537-551 mCi, 50.2-51.6 mCi/mL, GE Solid Target, n=3, T6 (6 h)",C (C = all results conform to specifications)
same,pH,"validation batches, 25 mg ascorbic acid, 555-564 mCi, 51.1-52.7 mCi/mL, ARTMS Solid Target, n=3, T0",C (C = all results conform to specifications)
same,pH,"validation batches, 25 mg ascorbic acid, 555-564 mCi, 51.1-52.7 mCi/mL, ARTMS Solid Target, n=3, T6 (6 h)",C (C = all results conform to specifications)

# — patent publication US20250360235A1, “RADI[…] AND METHOD FOR RADIOLABELLING” (Telix Innovations SA, priority 2024, published 2025)
